# Activity calls are given as the source filed them.
# Legend:
# [1] = non-specific 3'UTR reporter inhibition in Clone20-Shn3RL – cell-based, Renilla luciferase, cherry-picked, counter-screen for Shn3 inhibitor project, dose response (AID 624133); format: functional
# [2] = loss of viability in HepG2 cells – cell-based, CellTiter-Glo, cherry-picked, cytotoxicity control for Shn3 inhibitor project, dose response (AID 624134); format: functional
# [3] = reduction of Shn3 3'UTR-driven luciferase in osteoblasts – cell-based, Clone20 osteoblasts, firefly luciferase, cherry-picked, dose response (AID 624132); format: functional;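 note: firefly luciferase luminescence from reporter carrying the Shn3 3'UTR in osteoblasts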
# [4] = biological target: T1, DNA repair and recombination protein RAD54-like (Homo sapiens, UniProt Q92698); test: RAD54 Holliday junction migration blockers – biochemical, fluorescence, cherry-picked samples, dose series, confirmation (AID 651657); format: functional
# T1 sequence (Q92698 whole entry): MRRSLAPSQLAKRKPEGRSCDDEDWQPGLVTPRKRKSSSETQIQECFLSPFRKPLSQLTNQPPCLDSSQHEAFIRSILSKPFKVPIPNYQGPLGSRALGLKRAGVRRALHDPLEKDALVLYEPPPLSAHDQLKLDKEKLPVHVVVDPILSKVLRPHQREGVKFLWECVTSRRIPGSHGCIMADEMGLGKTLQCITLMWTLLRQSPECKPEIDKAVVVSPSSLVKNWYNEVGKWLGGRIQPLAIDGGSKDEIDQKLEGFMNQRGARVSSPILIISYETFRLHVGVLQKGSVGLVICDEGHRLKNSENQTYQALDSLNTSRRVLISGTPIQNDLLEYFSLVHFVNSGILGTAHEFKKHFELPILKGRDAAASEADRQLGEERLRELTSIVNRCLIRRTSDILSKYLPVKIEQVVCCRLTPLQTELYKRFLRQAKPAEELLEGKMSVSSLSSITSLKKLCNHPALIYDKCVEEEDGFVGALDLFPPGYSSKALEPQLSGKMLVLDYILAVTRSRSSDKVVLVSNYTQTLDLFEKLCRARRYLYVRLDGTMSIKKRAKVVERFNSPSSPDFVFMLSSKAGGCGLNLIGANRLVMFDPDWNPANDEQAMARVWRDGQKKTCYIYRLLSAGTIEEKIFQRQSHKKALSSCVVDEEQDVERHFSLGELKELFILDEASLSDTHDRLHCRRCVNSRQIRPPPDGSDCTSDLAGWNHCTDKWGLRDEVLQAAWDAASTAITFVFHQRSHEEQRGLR
# [5] = biological target: DNA dC->dU-editing enzyme APOBEC-3A (Homo sapiens, UniProt P31941); test: SAR analysis of small molecule inhibitors of APOBEC3A DNA Deaminase via a fluorescence-based single-stranded DNA deaminase assay.; format: functional; conditions: read-out: IC50_Mean
# DNA dC->dU-editing enzyme APOBEC-3A, sequence (P31941 whole entry): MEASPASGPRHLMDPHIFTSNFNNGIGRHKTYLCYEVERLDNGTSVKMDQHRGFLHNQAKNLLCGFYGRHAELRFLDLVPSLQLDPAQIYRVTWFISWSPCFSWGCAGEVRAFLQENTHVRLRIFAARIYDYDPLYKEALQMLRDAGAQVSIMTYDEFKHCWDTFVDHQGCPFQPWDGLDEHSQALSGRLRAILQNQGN
# [6] = biological target: DNA dC->dU-editing enzyme APOBEC-3G (Homo sapiens, UniProt Q9HC16); test: inhibition of APOBEC3G ssDNA deamination – biochemical, fluorescence, single-stranded DNA substrate, SAR follow-up (AID 602136); format: functional; conditions: read-out: IC50_Mean
# DNA dC->dU-editing enzyme APOBEC-3G, sequence (Q9HC16 whole entry): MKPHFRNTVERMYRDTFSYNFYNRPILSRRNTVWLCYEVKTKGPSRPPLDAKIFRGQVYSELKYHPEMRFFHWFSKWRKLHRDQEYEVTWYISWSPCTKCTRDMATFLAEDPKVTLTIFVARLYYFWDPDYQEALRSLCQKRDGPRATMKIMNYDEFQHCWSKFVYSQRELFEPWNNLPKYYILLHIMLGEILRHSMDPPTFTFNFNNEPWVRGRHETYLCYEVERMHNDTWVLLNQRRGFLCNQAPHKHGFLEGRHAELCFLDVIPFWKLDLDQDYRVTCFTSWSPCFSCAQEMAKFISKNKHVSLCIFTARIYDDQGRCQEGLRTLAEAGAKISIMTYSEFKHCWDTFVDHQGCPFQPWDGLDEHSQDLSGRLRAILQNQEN
# Cytochrome P450 2C9 = Cytochrome P450 2C9 (Homo sapiens, UniProt P11712)
# Cytochrome P450 2C9, sequence (P11712 whole entry): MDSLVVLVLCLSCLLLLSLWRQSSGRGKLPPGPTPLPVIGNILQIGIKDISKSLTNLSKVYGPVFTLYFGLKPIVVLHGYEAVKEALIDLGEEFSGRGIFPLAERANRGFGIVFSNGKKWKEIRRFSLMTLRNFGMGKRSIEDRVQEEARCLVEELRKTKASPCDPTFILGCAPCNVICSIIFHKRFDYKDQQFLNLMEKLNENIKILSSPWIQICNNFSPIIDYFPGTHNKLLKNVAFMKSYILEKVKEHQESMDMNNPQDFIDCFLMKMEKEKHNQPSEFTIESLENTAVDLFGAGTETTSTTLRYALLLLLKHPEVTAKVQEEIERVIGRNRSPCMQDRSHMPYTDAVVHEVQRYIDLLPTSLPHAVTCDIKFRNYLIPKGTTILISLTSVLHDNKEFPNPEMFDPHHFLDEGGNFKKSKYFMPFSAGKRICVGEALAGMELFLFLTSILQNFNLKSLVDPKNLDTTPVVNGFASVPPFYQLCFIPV
# Streptokinase A = biological target: T2, Streptokinase A (Streptococcus pyogenes serotype M1, UniProt P10520); test: viability-normalized secreted streptokinase activity reduction – plasminogen activation absorbance, OD405, dose response (AID 1914); format: functional, Streptococcus pyogenes M1 GAS;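 note: secreted streptokinase activity via plasminogen activation per viability signal from cell pellet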
# T2 sequence (P10520 whole entry): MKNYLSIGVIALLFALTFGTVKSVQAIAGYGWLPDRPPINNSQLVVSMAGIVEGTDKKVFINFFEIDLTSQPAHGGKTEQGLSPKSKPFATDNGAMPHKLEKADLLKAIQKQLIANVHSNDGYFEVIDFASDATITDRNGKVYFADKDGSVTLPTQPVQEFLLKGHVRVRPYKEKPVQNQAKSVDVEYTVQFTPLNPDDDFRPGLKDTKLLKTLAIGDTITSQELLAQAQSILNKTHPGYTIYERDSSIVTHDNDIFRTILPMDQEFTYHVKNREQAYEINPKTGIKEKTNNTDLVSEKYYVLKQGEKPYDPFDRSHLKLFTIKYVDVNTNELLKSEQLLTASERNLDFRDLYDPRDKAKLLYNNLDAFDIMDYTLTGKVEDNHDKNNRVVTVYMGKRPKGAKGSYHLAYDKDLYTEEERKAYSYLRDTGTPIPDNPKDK
# [7] = biological target: T3, Methionyl-tRNA synthetase, putative (Trypanosoma brucei brucei, UniProt Q38C91); format: functional, Trypanosoma brucei brucei strain 927/4 GUTat10.1
# T3 sequence (Q38C91 whole entry): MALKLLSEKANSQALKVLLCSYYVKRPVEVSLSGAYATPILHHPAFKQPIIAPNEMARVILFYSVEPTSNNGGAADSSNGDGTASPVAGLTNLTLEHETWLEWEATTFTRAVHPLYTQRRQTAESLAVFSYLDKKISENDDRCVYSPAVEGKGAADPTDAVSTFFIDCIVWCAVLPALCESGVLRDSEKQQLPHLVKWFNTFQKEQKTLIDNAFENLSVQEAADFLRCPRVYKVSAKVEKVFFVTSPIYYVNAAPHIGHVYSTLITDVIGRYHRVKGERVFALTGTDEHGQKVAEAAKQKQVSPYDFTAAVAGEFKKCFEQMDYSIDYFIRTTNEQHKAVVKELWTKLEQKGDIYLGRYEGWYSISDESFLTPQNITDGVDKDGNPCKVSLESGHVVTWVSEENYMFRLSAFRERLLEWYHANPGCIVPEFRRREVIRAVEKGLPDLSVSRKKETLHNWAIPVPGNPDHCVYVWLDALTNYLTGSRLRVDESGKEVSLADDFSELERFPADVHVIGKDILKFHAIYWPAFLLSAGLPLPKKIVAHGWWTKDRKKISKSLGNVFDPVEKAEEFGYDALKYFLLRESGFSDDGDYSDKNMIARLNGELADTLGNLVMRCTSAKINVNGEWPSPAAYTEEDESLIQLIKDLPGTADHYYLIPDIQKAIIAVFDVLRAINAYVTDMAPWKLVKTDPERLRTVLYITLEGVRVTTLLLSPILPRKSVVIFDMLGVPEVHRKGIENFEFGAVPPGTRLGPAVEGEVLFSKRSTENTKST
# [8] = system: Streptococcus sp. 'group A'; test: Streptococcus pyogenes SK(-)GAS viability under kanamycin – luminescence, BacTiterGlo, confirmation, counter-screen for streptokinase expression inhibitor project, dose response (AID 1900); format: functional, organism-based
# [9] = biological target: T3, Methionyl-tRNA synthetase, putative; format: functional, Trypanosoma brucei brucei strain 927/4 GUTat10.1; remark: listed apart in the source
# Streptococcus = test: GAS UMAA2166 growth inhibition – luminescence, BacTiterGlo, counter-screen for streptokinase expression inhibitor project, dose response (AID 1915); format: functional, organism-based;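 note: potency for reduction of bacterial viability or growth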
# [10] = Counterscreen for inhibitors of Trypanosoma brucei methionyl tRNA synthetase (MetRS): Luminescence-based cell-based high throughput dose response assay to identify compounds that are cytotoxic to Jurkat human T lymphocyte cells.; format: functional
# [11] = viability loss in THP-1 monocytes – THP-1 cells, cytotoxicity control for Vif-APOBEC3G degradation inhibitor project, dose response (AID 1117359); format: functional; conditions: THP-1
# [12] = biological target: T4, Apoptotic protease-activating factor 1 (Homo sapiens, UniProt O14727); format: functional
# T4 sequence (O14727 whole entry): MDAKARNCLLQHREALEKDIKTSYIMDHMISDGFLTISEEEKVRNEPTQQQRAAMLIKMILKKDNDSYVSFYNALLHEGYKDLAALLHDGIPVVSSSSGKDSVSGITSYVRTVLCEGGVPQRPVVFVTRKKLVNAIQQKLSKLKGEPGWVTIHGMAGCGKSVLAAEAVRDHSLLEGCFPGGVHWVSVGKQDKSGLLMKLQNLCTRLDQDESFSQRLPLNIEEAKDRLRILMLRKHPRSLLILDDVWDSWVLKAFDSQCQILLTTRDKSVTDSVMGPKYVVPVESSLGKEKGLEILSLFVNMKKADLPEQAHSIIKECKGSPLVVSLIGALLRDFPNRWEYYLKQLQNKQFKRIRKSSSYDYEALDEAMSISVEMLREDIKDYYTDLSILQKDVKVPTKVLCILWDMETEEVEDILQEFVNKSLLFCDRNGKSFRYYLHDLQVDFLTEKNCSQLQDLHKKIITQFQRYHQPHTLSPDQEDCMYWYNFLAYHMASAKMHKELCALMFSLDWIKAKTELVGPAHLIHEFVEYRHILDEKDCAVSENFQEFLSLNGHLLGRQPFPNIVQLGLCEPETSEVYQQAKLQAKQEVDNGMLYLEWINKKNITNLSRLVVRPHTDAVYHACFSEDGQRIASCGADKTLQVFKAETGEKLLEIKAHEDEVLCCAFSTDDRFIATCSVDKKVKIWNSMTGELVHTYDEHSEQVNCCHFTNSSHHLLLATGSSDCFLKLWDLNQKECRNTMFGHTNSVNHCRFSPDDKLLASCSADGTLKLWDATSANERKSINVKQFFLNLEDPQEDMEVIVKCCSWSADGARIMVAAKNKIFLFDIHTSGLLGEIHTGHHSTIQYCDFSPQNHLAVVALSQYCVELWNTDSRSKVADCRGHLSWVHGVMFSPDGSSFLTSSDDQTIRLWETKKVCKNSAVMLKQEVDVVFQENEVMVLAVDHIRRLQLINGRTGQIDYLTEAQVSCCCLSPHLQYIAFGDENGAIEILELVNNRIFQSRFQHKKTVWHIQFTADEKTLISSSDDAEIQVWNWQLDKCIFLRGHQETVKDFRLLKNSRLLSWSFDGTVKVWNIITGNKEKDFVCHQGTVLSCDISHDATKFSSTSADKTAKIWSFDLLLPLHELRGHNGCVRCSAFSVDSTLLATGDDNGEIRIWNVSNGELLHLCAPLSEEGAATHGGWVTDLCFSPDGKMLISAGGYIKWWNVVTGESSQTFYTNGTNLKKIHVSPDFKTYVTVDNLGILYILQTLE
# [13] = biological target: T5, Polyadenylate-binding protein 1 (Homo sapiens, UniProt P11940); test: MLLE domain peptide-binding blockers, IC50 – biochemical, fluorescence polarization, FITC-PAM2 peptide, dose response (AID 602259); format: functional; conditions: read-out: IC50_Mean
# T5 sequence (P11940 whole entry, the tested form may be a part): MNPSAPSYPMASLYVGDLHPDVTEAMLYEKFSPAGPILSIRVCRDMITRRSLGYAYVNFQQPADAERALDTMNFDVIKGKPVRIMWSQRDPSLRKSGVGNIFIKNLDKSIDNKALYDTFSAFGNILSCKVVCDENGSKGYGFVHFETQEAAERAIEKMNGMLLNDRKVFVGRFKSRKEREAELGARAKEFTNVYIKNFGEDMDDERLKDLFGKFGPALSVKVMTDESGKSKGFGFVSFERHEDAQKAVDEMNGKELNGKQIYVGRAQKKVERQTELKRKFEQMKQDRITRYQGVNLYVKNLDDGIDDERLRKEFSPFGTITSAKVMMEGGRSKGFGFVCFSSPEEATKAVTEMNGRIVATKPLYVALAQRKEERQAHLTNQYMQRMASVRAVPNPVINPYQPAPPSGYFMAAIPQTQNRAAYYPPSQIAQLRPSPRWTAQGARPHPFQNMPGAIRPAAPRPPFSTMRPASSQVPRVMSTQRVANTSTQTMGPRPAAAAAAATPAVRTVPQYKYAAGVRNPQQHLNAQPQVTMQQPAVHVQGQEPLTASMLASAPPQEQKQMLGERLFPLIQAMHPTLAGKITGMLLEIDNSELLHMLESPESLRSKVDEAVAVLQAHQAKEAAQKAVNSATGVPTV
# [14] = biological target: Induced myeloid leukemia cell differentiation protein Mcl-1 (Homo sapiens, UniProt Q07820); format: functional
# Induced myeloid leukemia cell differentiation protein Mcl-1, sequence (Q07820 whole entry): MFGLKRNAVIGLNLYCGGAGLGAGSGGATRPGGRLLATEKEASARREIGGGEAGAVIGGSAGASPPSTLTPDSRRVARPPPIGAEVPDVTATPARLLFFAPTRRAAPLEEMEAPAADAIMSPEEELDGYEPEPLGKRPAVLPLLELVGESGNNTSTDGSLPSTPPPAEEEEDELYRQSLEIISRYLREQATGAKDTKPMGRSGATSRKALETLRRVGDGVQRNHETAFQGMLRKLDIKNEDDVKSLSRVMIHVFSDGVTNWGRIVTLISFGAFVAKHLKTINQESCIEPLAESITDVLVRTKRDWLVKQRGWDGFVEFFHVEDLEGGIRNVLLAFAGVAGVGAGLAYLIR
# [15] = biological target: T5, Polyadenylate-binding protein 1; test: MLLE binding blockers, Cy5 peptide tracer – biochemical, fluorescence polarization, Cy5-PAM2 peptide, secondary, miRNA deadenylation inhibitor project, dose response (AID 602260); format: functional; conditions: read-out: IC50_Mean
# [16] = biological target: T6, DNA repair protein RAD52 homolog (Homo sapiens, UniProt P43351); format: functional, biochemical
# T6 sequence (P43351 whole entry): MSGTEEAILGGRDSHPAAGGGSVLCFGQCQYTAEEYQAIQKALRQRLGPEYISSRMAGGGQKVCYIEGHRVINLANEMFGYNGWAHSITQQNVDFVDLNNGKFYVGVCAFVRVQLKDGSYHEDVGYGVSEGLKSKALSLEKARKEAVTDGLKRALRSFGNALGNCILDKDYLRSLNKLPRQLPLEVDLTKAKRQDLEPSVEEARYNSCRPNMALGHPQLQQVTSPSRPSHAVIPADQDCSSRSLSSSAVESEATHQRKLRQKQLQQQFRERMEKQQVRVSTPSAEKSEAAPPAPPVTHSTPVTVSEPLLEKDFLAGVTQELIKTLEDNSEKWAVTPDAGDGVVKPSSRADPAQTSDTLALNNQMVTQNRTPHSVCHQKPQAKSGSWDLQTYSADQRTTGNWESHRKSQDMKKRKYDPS
# [17] = biological target: T7, Calpain-2 catalytic subunit (Sus scrofa, UniProt P43367); test: m-calpain protease blockers, concentration series – biochemical, fluorogenic peptide substrate, dose response (AID 1420); format: functional
# T7 sequence (P43367 whole entry): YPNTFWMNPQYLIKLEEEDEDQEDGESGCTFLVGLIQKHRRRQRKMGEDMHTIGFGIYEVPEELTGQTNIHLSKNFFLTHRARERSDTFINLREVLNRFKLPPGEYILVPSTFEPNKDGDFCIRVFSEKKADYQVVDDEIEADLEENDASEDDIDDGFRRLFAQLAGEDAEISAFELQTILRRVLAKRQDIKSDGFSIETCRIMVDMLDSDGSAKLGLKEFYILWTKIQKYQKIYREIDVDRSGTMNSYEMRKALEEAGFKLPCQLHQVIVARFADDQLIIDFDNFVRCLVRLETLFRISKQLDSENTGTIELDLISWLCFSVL
smiles,measurement,setting,value
O=C(c1ccc(Cl)cc1)C1CCCN(Cc2cccc3ncccc23)C1 (centres undefined),AC50,[1],7.83 µM (active)
same,AC50,[2],> 70 µM (inactive)
same,AC50,[3],4.52 µM (active)
COc1ccc(Nc2c3c(nc4ccc(C)cc24)CCC3)cc1,AC50,[4],84.4 µM (active)
C#CCSc1nnc(-c2cc3c(C(F)(F)F)nn(C)c3s2)n1C,IC50,[5],> 99 µM (inactive)
same,IC50,[6],> 99 µM (inactive)
same,AC50,Cytochrome P450 2C9,inconclusive
S=C(NCc1cccs1)Nc1cc(Cl)cc(Cl)c1,EC50,Streptokinase A,> 150 µM (not active)
same,IC50,[7],24.6 µM (inactive)
same,EC50,[8],5.49 µM (active)
same,IC50,[9],104 µM (inactive)
same,EC50,Streptococcus,13.7 µM (active)
same,IC50,[10],34.5 µM (inactive)
COc1ccc2c(c1)c1ccc3c(c1n2C)C(=O)C=CC3=O,CC50,[11],18 µM (active)
same,IC50,[12],19.3 µM (active)
same,IC50,[13],58.5 µM (inactive)
same,IC50,[14],0.946 µM (active)
same,IC50,[15],> 66 µM (inactive)
O=C(c1nn2c(C(F)(F)F)cc(-c3ccc(Cl)cc3)nc2c1Cl)N1CCCC1,IC50,[5],> 99 µM (inactive)
same,IC50,[6],> 99 µM (inactive)
Cc1cccn2c(=O)c3cc(C(=O)NCCN4CCOCC4)c(=N)n(CCN4CCOCC4)c3nc12,AC50,[4],15.9 µM (active)
same,AC50,[16],13.7 µM (active)
O=C(NCc1cccs1)c1cccc(Nc2nc3cc(Br)ccc3[nH]2)c1,IC50,[7],38.7 µM (inactive)
same,IC50,[9],31.3 µM (inactive)
same,IC50,[17],11.1 µM (not active)
same,IC50,[10],83.1 µM (inactive)
COc1cc(CNc2[nH]cnc3c4cc(C)ccc4nc2-3)cc(OC)c1,IC50,[7],2.32 µM (active)
same,IC50,[9],1.46 µM (active)
same,IC50,[10],27.8 µM (inactive)
